In patent publication US10450274B2, “Quinoline compounds, preparation methods thereof, and uses thereof as urate transporter inhibitor drug” (HINOVA PHARMACEUTICALS INC., priority 2015, dated 2019):
Several values for one entry are separate records, joined by “and”; a condition that tells them apart may be missing. Equal values may be shown once. Read-outs that look alike come from different tables or passages of the source.

Molecular target: T1, hURAT1 (Homo sapiens, UniProt Q96S37)
T1 sequence (Q96S37 1-553): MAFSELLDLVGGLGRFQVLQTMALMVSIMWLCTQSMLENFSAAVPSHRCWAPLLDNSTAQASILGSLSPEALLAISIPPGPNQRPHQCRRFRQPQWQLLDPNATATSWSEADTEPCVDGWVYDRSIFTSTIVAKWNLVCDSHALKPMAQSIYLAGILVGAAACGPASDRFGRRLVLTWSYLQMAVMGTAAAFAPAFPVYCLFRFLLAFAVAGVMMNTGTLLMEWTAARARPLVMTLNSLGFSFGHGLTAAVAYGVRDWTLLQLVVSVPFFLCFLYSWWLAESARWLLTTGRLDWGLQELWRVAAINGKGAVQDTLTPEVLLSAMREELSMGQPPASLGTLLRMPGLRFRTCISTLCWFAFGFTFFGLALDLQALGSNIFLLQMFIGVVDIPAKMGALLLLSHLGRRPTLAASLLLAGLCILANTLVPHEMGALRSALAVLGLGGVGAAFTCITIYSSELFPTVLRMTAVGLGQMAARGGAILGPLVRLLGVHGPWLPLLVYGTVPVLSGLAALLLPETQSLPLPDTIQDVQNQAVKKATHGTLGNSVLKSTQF
Assay: Inhibitory activity against URAT1: 14C-labelled uric acid uptake in HEK-293t cells stably expressing hURAT1
Type: cell-based
Text: • Test example: Determination of the inhibitory activity of compounds according to the present invention against URAT1 Experimental Materials • FBS (Invitrogen, Cat. No. 10099141) • Trypsin (Invitrogen, Cat. No. 25200056) • DPBS (Invitrogen, Cat. No. 14190250) • DMEM (Invitrogen, Cat. No. 10564) • Penicillin-Streptomycin (Invitrogen, Cat. No. 15070-063) • TransIT-293 Transfection Reagent (MIRUS BIO, Cat. No. MIR2706) • Opti-MEM® I Reduced Serum Medium (Invitrogen, Cat. No. 31985-070) • URAT1 plasmid (Genecopoeia, Cat. No. EX-T4563-M03) • Uric acid [8-14C] (ARC, Cat. No. ARC0513-250UCI) • Ultima Gold™ XR (PerkinElmer, Cat. No. 6013111) • Benzbromarone (J&K Scientific, Cat. No. 3562-84-3) • D-Gluconic acid sodium salt (Aladdin, Cat. No. 527-07-1) • Potassium D-gluconate (Aladdin, Cat. No. 299-27-4) • Calcium gluconate (Aladdin, Cat. No. 299-28-5) • DMSO (Sigma, Cat. No. D2650) • Tube, 15 ml (Greiner, Cat. No. 07030115) • Tube, 50 ml (BD Falcon, Cat. No. 352098) • Poly-D-lysine 96-well microplates (BD, Cat. No. 356461) • Isoplate-96 Microplate (PERKIN ELMER, Cat. No. 6005040) Experimental Method:
Cell Culture: • 1. The HEK-293t cells that expressed the stable expression of hURAT1 were cultured in DMEM medium containing 10% FBS and 1% P/S, and incubated overnight in the incubator at 37° C. under 5% carbon dioxide. • 2. the culture medium was removed, and the cells were washed with PBS, and then the pancreatin was added to digest for 2 minutes. After the cell is separated from the dish, 10 ml of medium was added to terminate digestion. • 3. The cells were placed into a centrifugal apparatus and centrifugated for 2 minutes at the speed of 1000 rpm, followed by the addition of fresh 10 mL medium to resuspend the cells, and calculate the number of cells. The number of cells was adjusted to 4×10^5 cells/mL. • 4. the above counted cells were inoculated into the 96-well plate at 100 μL/well. • 5. The 96-well plate with inoculated cells was placed in a 37° C. cell incubator and cultivated overnight.
The uric acid absorption experiment labeled with isotope C14: • 1. 5 mL of Cl-free HBSS buffer was added to a 15 mL centrifuge tube, followed by the addition of the uric acid labeled with C14, and the concentration of uric acid was 2 uCi/ml. • 2. The medium in the 96-well plate that was previously cultivated overnight was removed, and the plate was washed three times with […] preheated Cl-free HBSS buffer. • 3. The buffer in the well-washed 96-well plate was removed. • 4. […] Cl-free HBSS buffer containing C-14 labeled uric acid was added into each well in the cleaned 96-well plate, and then DMSO solution of the compound that needs to be tested was added. • 5. After the 96-well plate stood for 5 minutes at room temperature, all the liquid in it was removed. • 6. […] precooled Cl-free HBSS buffer was added to wash the plate three times. • 7. After the remained liquid in the plates was completely removed, 50 μL cell lysis was added to each well, and the plate was agitated on the mixer at a speed of 600 revolutions/min for 10 minutes. • 8. After 50 μL Ultima Gold™ XR scitillation cocktail fluid was added, the plate was continued to agitate for 10 minutes. The well-agitated plate was sealed, and the data was read on MicroBeta Trilux. • 9. The test compound was dissolved in DMSO, and DMSO at the same concentration was added to the HEK293/hURAT1 cell well without test compounds. […] The radiation value obtained from the well containing DMSO is considered to be 100% of the cell uptake. The IC50 values of compounds can be calculated by the inhibition rate at different concentrations.
Among them, reference compound 1 was synthesized according to the method described in patent WO 2011/159839 A2. Reference compound 2 and reference compound 3 were synthesized according to the method described in patent WO 2014/183555 A1, and they were head-to-head tested with compounds 83 and 129 respectively under the same conditions.

[1] = HEK-293t/hURAT1 cells, 14C uric acid uptake, 5 minutes at room temperature, Ref Cpd 2, 83, Ref Cpd 3 and 129 are averages of head-to-head tests, read-out: IC50 (nM) of hURAT1 inhibitory activity

| IC50 [1] | IC50 (average of the multiple head-to-head comparison tests, Table 2, read-out: Average (IC50 of multiple determinations)) | IC50 (single determinations of multiple head-to-head tests, Ref cpd 2 vs Cpd 83, read-out: Multiple determination data (IC50)) | Compound |
| --- | --- | --- | --- |
| 109 nM | – | – | CCOc1cccc(-c2ccc3nccc(SC(CC)(CC)C(=O)O)c3c2)c1 [Compound 113, 2-(6-(3-ethoxy-phenyl)-quinolin-4-ylthio)-2-ethylbutanoic acid] |
| 203 nM | – | – | CCCC(CCC)(Sc1ccnc2ccc(Br)cc12)C(=O)O [Compound 114, 2-(6-bromoquinolin-4-ylthio)-2-propylpentanoic acid] |
| 79 nM | – | – | COc1cc(-c2ccc3nccc(SC(C)(C)C(=O)O)c3c2)ccn1 [Compound 115, 2-(6-(2-methoxypyridin-4-yl)quinolin-4-ylthio)-2-methylpropanoic acid] |
| 98 nM | – | – | CCC(CC)(Sc1ccnc2ccc(-c3ccnc(OC)c3)cc12)C(=O)O [Compound 116, 2-(6-(2-methoxypyridin-4-yl)quinolin-4-ylthio)-2-ethylbutanoic acid] |
| 272 nM | – | – | CC(C)(Sc1ccnc2ccc(-c3ccnc(F)c3)cc12)C(=O)O [Compound 117, 2-(6-(2-fluoropyridin-4-yl)-quinolin-4-ylthio)-2-methylpropanoic acid] |
| 133 nM | – | – | CCC(CC)(Sc1ccnc2ccc(-c3ccncc3)cc12)C(=O)O [Compound 119, 2-(6-(pyridin-4-yl)quinolin-4-ylthio)-2-ethylbutanoic acid] |
| 1240 nM | – | – | Cc1cc(-c2ccc3nccc(SC(C)(C)C(=O)O)c3c2)ccn1 [Compound 120, 2-(6-(2-methylpyridin-4-yl)quinolin-4-ylthio)-2-methylpropanoic acid] |
| 360 nM | – | – | CCC(CC)(Sc1ccnc2ccc(-c3ccnc(C)c3)cc12)C(=O)O [Compound 121, 2-(6-(2-methylpyridin-4-yl)-quinolin-4-ylthio)-2-ethylbutanoic acid] |
| 201 nM | – | – | CCC(CC)(Sc1ccnc2ccccc12)C(=O)O [Compound 129] |
| 138 nM | 138 nM | 72.9 nM and 185 nM and 172 nM and 164 nM and 144 nM and 127 nM and 99 nM | O=C(O)C1(Sc2ccnc3ccc(Br)cc23)CCC1 [Ref Cpd 2, reference compound] |
| 794 nM | – | – | O=C(O)C1(Sc2ccnc3ccccc23)CCC1 [Ref Cpd 3, reference compound] |
| 154 nM | – | – | CC(C)(Sc1ccncc1-c1ccc(C#N)c2ccccc12)C(=O)O [Ref cpd 1 (RDEA3170), reference compound] |
